# According to patent US9695155B2, “Herbicidal substituted pyrimidinyloxy benzene compounds” (E. I. DU PONT DE NEMOURS AND COMPANY, priority 2013, dated 2017):
# Key:
# [1] = test system: kochia; assay: Test A preemergence; type: in vivo, Kochia scoparia
# How it was run: (§1)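 Compounds in non-phytotoxic solvent with surfactant applied as soil spray preemergence, or postemergence to plants 2-10 cm at one- to two-leaf stage, in loam/sand. After approximately 10 days in greenhouse, injury rated visually versus untreated controls, 0 (no effect) to 100 (complete control).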
# [2] = test system: barnyardgrass; assay: Test A postemergence; type: in vivo, Echinochloa crus-galli; details: 0 to 100 scale, 0 no effect, 100 complete control
# How it was run: as §1
# [3] = test system: kochia; assay: Test A postemergence; type: in vivo, Kochia scoparia; details: 0 to 100 scale, 0 no effect, 100 complete control
# How it was run: as §1
# [4] = test system: ragweed; assay: Test A postemergence; type: in vivo, Ambrosia elatior; details: 0 to 100 scale, 0 no effect, 100 complete control
# How it was run: as §1
# [5] = test system: corn; assay: Test A postemergence; type: in vivo, Zea mays; details: 0 to 100 scale, 0 no effect, 100 complete control
# How it was run: as §1
# [6] = test system: wheat, winter; assay: Test C postemergence; type: in vivo, Triticum aestivum; details: for Plant response rating (0 to 100), Wheat: 16 g ai/ha, 0 is no effect, 100 is complete control
# How it was run: (§2)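 Visual ratings on a 0–100 scale (100 = complete control) were made versus untreated controls after 13–15 greenhouse days. Chemicals in a surfactant-containing non-phytotoxic solvent were applied either preemergence to seeds in loam–sand soil or postemergence to 1- to 4-leaf plants 2–18 cm tall.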
# [7] = test system: galium; assay: Test C postemergence; type: in vivo, Galium aparine; details: for Plant response rating (0 to 100), Galium: 16 g ai/ha, 0 is no effect, 100 is complete control
# How it was run: as §2
# [8] = test system: yellow nutsedge; assay: Test C postemergence; type: in vivo, Cyperus esculentus; details: for Plant response rating (0 to 100), Nutsedge, Yellow: 16 g ai/ha, 0 is no effect, 100 is complete control
# How it was run: as §2
# [9] = test system: ragweed; assay: Test C postemergence; type: in vivo, Ambrosia elatior; details: for Plant response rating (0 to 100), Ragweed: 16 g ai/ha, 0 is no effect, 100 is complete control
# How it was run: as §2
# [10] = test system: barnyardgrass; assay: Test C postemergence; type: in vivo, Echinochloa crus-galli; details: for Plant response rating (0 to 100), Barnyardgrass: 16 g ai/ha, 0 is no effect, 100 is complete control
# How it was run: as §2
# [11] = test system: waterhemp; assay: Test C postemergence; type: in vivo, Amaranthus rudis; details: for Plant response rating (0 to 100), Waterhemp: 16 g ai/ha, 0 is no effect, 100 is complete control
# How it was run: as §2
# [12] = test system: wild oat; assay: Test C postemergence; type: in vivo, Avena fatua; details: for Plant response rating (0 to 100), Oat, Wild: 16 g ai/ha, 0 is no effect, 100 is complete control
# How it was run: as §2
# [13] = 31 g ai/ha, postemergence, visual rating, scale 0 to 100 (0 no effect, 100 complete control), 13 to 15 days
# [14] = 125 g ai/ha, postemergence, visual rating, scale 0 to 100 (0 no effect, 100 complete control)
# [15] = Postemergence, 62 g ai/ha, scale 0 to 100 (0 no effect, 100 complete control), 13 to 15 days
# [16] = Postemergence, 62 g ai/ha, scale 0 to 100 (0 no effect, 100 complete control)
structure (smiles),measurement,setting,value
FCc1cccc(Oc2ncc(Cl)cn2)c1-n1cc(I)cn1 [Compound 245],"Plant response rating, Kochia","[1]; 31 g ai/ha, 0 to 100 scale where 0 is no effect and 100 is complete control, visual, approximately 10 days",0
same,Kochia plant response rating (0 to 100 scale),[1]; 125 g ai/ha,30
same,"Plant response rating, Barnyardgrass",[2]; 31 g ai/ha,0
same,"Plant response rating, Barnyardgrass",[2]; 125 g ai/ha,30
same,"Plant response rating, Kochia",[3]; 31 g ai/ha,60
same,"Plant response rating, Kochia",[3]; 125 g ai/ha,100
same,"Plant response rating, Ragweed",[4]; 31 g ai/ha,0
same,"Plant response rating, Ragweed",[4]; 125 g ai/ha,20
same,"Plant response rating, Corn",[5]; 31 g ai/ha,20
same,"Plant response rating, Corn",[5]; 125 g ai/ha,40
same,"Plant response rating (0 to 100), Wheat",[6]; postemergence,0
same,Wheat plant response rating,[6]; [13],0
same,"Plant response rating, Wheat",[6]; [14],5
same,"Plant response rating, Wheat",[6]; [15],0
same,"Plant response rating (0 to 100), Galium",[7]; postemergence,60
same,Galium plant response rating,[7]; [13],60
same,"Plant response rating, Galium",[7]; [14],85
same,"Plant response rating, Galium",[7]; [15],80
same,"Plant response rating (0 to 100), Nutsedge, Yellow",[8]; postemergence,5
same,"Nutsedge, Yellow plant response rating",[8]; [13],5
same,"Plant response rating, Nutsedge, Yellow",[8]; [14],10
same,"Plant response rating, Nutsedge, Yellow",[8]; [15],5
same,"Plant response rating (0 to 100), Ragweed",[9]; postemergence,35
same,Ragweed plant response rating,[9]; [13],40
same,"Plant response rating, Ragweed",[9]; [14],60
same,"Plant response rating, Ragweed",[9]; [15],45
same,"Plant response rating (0 to 100), Barnyardgrass",[10]; postemergence,5
same,Barnyardgrass plant response rating,[10]; [13],5
same,"Plant response rating, Barnyardgrass",[10]; [14],5
same,"Plant response rating, Barnyardgrass",[10]; [16],5
same,"Plant response rating (0 to 100), Waterhemp",[11]; postemergence,60
same,Waterhemp plant response rating,[11]; [13],65
same,"Plant response rating, Waterhemp",[11]; [14],75
same,"Plant response rating, Waterhemp",[11]; [15],85
same,"Plant response rating (0 to 100), Oat, Wild",[12]; postemergence,0
same,"Oat, Wild plant response rating",[12]; [13],0
same,"Plant response rating, Oat, Wild",[12]; [14],5
same,"Plant response rating, Oat, Wild",[12]; [15],5
FCc1cn(-c2ccccc2Oc2ncc(Cl)cn2)nn1 [Compound 123],Kochia plant response rating,"[1]; 1000 g ai/ha, 0 to 100 scale, 0 no effect, 100 complete control, approx. 10 days",100
same,"Plant response rating, Barnyardgrass",[2]; 1000 g ai/ha,100
same,"Plant response rating, Kochia",[3]; 1000 g ai/ha,100
same,"Plant response rating, Ragweed",[4]; 1000 g ai/ha,100
same,"Plant response rating, Corn",[5]; 1000 g ai/ha,70
same,"Plant response rating (0 to 100), Wheat",[6]; postemergence,0
same,"Plant response rating, Wheat",[6]; [14],5
same,"Plant response rating, Wheat",[6]; [16],0
same,"Plant response rating (0 to 100), Galium",[7]; postemergence,40
same,"Plant response rating, Galium",[7]; [14],90
same,"Plant response rating, Galium",[7]; [16],85
same,"Plant response rating (0 to 100), Nutsedge, Yellow",[8]; postemergence,5
same,"Plant response rating, Nutsedge, Yellow",[8]; [14],10
same,"Plant response rating, Nutsedge, Yellow",[8]; [16],10
same,"Plant response rating (0 to 100), Ragweed",[9]; postemergence,35
same,"Plant response rating, Ragweed",[9]; [14],75
same,"Plant response rating, Ragweed",[9]; [16],70
same,"Plant response rating (0 to 100), Barnyardgrass",[10]; postemergence,10
same,"Plant response rating, Barnyardgrass",[10]; [14],15
same,"Plant response rating, Barnyardgrass","[10]; Postemergence, 31 g ai/ha, scale 0 to 100 (0 no effect, 100 complete control), 13 to 15 days",15
same,"Plant response rating, Barnyardgrass",[10]; [16],15
same,"Plant response rating (0 to 100), Waterhemp",[11]; postemergence,25
same,"Plant response rating, Waterhemp",[11]; [14],80
same,"Plant response rating, Waterhemp",[11]; [16],80
same,"Plant response rating (0 to 100), Oat, Wild",[12]; postemergence,0
same,"Plant response rating, Oat, Wild",[12]; [14],0
same,"Plant response rating, Oat, Wild",[12]; [16],0
